Source: paper PMC8400343, “Synthesis and Evaluation of the Antidepressant-like Properties of HBK-10, a Novel 2-Methoxyphenylpiperazine Derivative Targeting the 5-HT1A and D2 Receptors” (Pharmaceuticals, 2021)

What was measured:
[1] = Metabolic stability in mouse liver microsomes (MLMs); type: in vitro ADME
Method: Next, the target compound was incubated with mouse liver microsomes in the presence of an NADPH regenerating system. In the initial screening phase, the percentage of the parent compound recovered after 30 min of incubation was calculated (Table 2). […] The assay was performed with mouse liver microsomes from male CD-1. […] Metabolic reactions were initiated by the addition of the NADPH regenerating system, containing NADP, glucose-6-phosphate, and glucose-6-phosphate dehydrogenase. […] Enzymatic reactions were quenched by perchloric acid followed by addition of internal standard (pentoxifylline). Negative controls were performed without NADPH-regenerating system. After centrifugation, samples were analyzed by LC/MS (UPLC/MS, Waters Corporation, Milford, MA, USA). In vitro half time (t1/2) and intrinsic clearance (Clint) of test compound in liver microsomes were determined according to literature procedures.

dopaminergic D2 receptor = dopaminergic D2 receptor (Homo sapiens, UniProt P14416); assay: Radioligand binding, [3H]-methylspiperon, CHO-K1 cells; conditions: mean ± SEM, read-out: Dopaminergic pKi D2 (converted)
dopaminergic D2 receptor, sequence (P14416 whole entry): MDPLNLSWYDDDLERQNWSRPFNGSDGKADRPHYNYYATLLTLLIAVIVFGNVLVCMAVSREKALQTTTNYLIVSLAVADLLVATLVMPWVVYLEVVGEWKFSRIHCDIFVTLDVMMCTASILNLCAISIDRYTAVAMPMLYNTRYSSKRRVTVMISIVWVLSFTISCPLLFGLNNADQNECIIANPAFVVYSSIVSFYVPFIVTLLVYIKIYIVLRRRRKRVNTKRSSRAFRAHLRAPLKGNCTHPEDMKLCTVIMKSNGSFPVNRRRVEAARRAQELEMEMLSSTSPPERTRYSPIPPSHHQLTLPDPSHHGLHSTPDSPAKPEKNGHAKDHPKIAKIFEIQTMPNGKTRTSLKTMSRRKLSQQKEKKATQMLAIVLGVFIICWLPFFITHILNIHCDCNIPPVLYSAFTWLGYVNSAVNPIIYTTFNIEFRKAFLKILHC
Method: The reaction was terminated by rapid filtration through GF/B or GF/C filter mate presoaked with 0.3% polyethyleneimine for 30 min. Ten rapid washes with 200 µl 50 mM Tris buffer (4 °C, pH 7.4) were performed using an automated harvester system Harvester-96 MACH III FM (Tomtec). […] Radioactivity was counted in the MicroBeta2 scintillation counter (PerkinElmer) at approximately 30% efficiency. […] A single assay was performed with each compound concentrations in duplicate, and the whole assay was repeated in a three independent experiments.

dopamine D2 receptor = molecular target: T1, dopamine D2 receptor (Homo sapiens, UniProt P14416); assay: Aequorin-based calcium mobilization functional assay, CHO-K1 cells; type: cell-based
T1 construct: expressed in transfected cells; host or cells: recombinant CHO-K1 co-expressing mitochondrially targeted aequorin and Gαqi/5
T1 sequence (P14416 whole entry): as above
Method: Therefore, using in vitro functional assay, we next investigated the type of the interaction with this receptor.
Tested and reference compounds were dissolved in dimethyl sulfoxide (DMSO) at a concentration of 1 mM. Serial dilutions were prepared in 96-well microplate in assay buffer, and 8-to-10 concentrations were tested. A cellular aequorin-based functional assay was performed with recombinant CHO-K1 cells expressing mitochondrially targeted aequorin, human GPCR, and the promiscuous G protein Gαqi/5 for D2 receptor. After thawing, cells were transferred to assay buffer (DMEM/HAM’s F12 with 0.1% protease-free BSA) and centrifuged. The cell pellet was resuspended in assay buffer, and coelenterazine h was added at final concentrations of 5 µM. […] After 1 h of incubation, 50 µL of the cell’s suspension was dispensed using automatic injectors built into the radiometric and luminescence plate counter MicroBeta2 LumiJET (PerkinElmer, USA) into white opaque 96-well microplates preloaded with test compounds. Immediate light emission generated following calcium mobilization was recorded for 30 s. In antagonist mode, after 30 min of incubation, the reference agonist was added to the above assay mix and light emission was recorded again.

mice = assay: Tail suspension test in mice; type: in vivo, mouse; conditions: 30 min before test
Method: Adult male Albino-Swiss mice (CD-1, 8 weeks old, 18–21g: Jagiellonian University Medical College, Krakow, Poland) were used in all experiments. Unless stated otherwise, the animals were kept in groups of 10 mice in standard cages (37 cm × 21 cm × 15 cm) at a room temperature (22 ± 2 °C), on a 12 h light/dark cycle (lights on 7:00) with ad libitum access to food and water. Mice were used only once in each test. Behavioral experiments were performed between 8 am and 4 pm and evaluated by a trained observer blind to the treatments. Mice were handled for 1 week before starting the experimental procedures. Animals were randomly allocated to the treatment using a computer-generated sequence, and researchers making measurements on the animals or analyzing the results were blind to the allocation. Moreover, experimental groups were distributed across multiple cages, and the location of the mouse cages in the room was changed following each day. […]
The experiment was carried out in mice according to the method described by Steru et al. and as previously described. […] The total time of immobility was measured during the 6-min test period. […] The experiments were video-recorded and scored using elevenmaze.com software by a trained observer blind to the treatments.

[2] = MTT viability assay in HepG2 cells; type: cell-based; conditions: human, % of control, read-out: Viability (% ± SEM)
Method: To investigate the lack of hepatotoxicity of HBK-10 at 25 µM concentration, we used HepG2 cells. Viability was measured using 3-(4,5-dimethyl-thiazol-2-yl)-2,5-diphenyltetrazolium (MTT) assay. We chose 25 µM since such concentration was used in metabolic stability studies.
To investigate the preliminary hepatic safety of HBK-10 at the concentration used in metabolic stability study, a human hepatocellular carcinoma cell line—HepG2 (HB-8065TM, ATCC, Manassas, VA, USA) was used in the study. HepG2 cells were cultured in standard conditions (37 °C, 5% CO2, 95% humidity) in appropriate culture medium (according to manufacturer procedure), supplemented with 10% fetal bovine serum (FBS, Gibco, Thermo Fisher Scientific, Waltham, MA, USA) and antibiotics (1% streptomycin/penicillin mixture; Sigma-Aldrich, Steinheim, Germany). Cells were seeded in 96-well plates at density of 1 × 10^4 per well. After 24 h cells were treated with two doses of HBK-10 (5 and 25 µM, solvent—PBS) and incubated for additional 24 h. Following the incubation cells viability was measured with MTT assay. For this purpose, MTT reagent (3-(4,5-dimethylthiazol-2-yl)-2,5-diphenyltetrazolium bromide) (Sigma Aldrich, Steinheim, Germany) was added to each well at the concentration 0.5 mg/mL. After 4 h incubation at 37 °C, the medium was aspirated, and formazan crystals produced in the cells were dissolved in DMSO. Then the absorbance of solution was determined at 570 nm (A570) on plate reader (Spectra iD3 Max, Molecular Devices; San Jose, CA, USA). Viability (% of control) was determined by dividing A570 of experimental wells by of A570 of control wells × 100%.

With `CCC(CN1CCN(c2ccccc2OC)CC1)NCCCOc1c(C)cccc1C.Cl.Cl` (centres unmarked) [HBK-10, N-(3-(2,6-dimethylphenoxy)propyl)-1-(4-(2-methoxyphenyl)piperazin-1-yl)butan-2-amine dihydrochloride] the “Recovery percent of parent compound after 30 min, fold higher than buspirone” value [1] was “more than 100 fold”, the half-life at 20 µM ([1]; male, CD-1, mouse, liver microsomes, pH 7.4, protein concentration 0.8) was 25 min and the remaining at 0.5 h, 20 µM ([1]; male, CD-1, mouse, liver microsomes, pH 7.4, protein concentration 0.8, NADPH regenerating system, read-out: % Remaining after 30 min) was 36%. It also gave a microsomal CLint at 20 µM ([1]; male, CD-1, mouse, liver microsomes, pH 7.4, protein concentration 0.8, read-out: Intrinsic Clearance (Clint)) of 34.6 µL/min/mg, a Ki (dopaminergic D2 receptor) of 50.1 nM and an Emax (dopamine D2 receptor; CHO-K1, read-out: Emax %, agonist mode) of 9%. The “Kb, fold lower than Kb of chlorpromazine” value (dopamine D2 receptor; D2, antagonist mode) was 3.1 fold, the Kb (dopamine D2 receptor; D2, antagonist mode, Cheng–Prusoff equation) was 2.76 nM and the IC50 (dopamine D2 receptor; read-out: pIC50 ± SEM, antagonist mode (converted)) was 9.33 nM. For the same compound, the “Reduction of immobility in the tail suspension test” value (mice; 5 mg/kg ip) was 54.5%, the “Reduction of immobility in the tail suspension test” value (mice; 10 mg/kg ip) was 42% and the viability at 24 h, 1 µM ([2]; HBK-10 1 μM) was 102 ± 3.3%. For the same compound, the viability at 24 h, 5 µM ([2]; HBK-10 5 μM) was 109 ± 0.9% and the viability at 24 h, 25 µM ([2]; HBK-10 25 μM) was 99 ± 2.4%.
